Biological target: T1, human topoisomerase I (Homo sapiens, UniProt P11387)
T1 construct: purchased Sigma-Aldrich (St. Louis, MO, USA)
T1 sequence (P11387 1-765): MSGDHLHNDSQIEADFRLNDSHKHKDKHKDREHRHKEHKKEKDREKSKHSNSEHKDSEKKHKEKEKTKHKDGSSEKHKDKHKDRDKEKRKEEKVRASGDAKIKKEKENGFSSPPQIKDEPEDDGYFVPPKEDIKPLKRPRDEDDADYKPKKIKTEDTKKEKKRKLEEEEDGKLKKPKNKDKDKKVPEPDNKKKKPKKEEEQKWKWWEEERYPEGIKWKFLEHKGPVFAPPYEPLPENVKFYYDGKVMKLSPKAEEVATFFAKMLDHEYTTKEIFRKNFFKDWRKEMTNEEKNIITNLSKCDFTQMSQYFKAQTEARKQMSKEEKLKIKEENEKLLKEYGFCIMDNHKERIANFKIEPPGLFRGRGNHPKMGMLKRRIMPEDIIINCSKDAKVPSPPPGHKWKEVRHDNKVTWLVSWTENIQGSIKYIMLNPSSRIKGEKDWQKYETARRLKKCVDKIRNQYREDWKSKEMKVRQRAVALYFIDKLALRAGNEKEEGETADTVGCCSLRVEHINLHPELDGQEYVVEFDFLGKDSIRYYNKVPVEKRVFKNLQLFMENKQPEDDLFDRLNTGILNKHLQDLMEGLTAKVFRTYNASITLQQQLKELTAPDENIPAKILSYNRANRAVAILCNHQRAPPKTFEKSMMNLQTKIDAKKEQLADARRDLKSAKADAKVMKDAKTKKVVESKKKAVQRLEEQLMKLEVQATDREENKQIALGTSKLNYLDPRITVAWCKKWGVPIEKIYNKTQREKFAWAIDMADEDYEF
Experiment: TOP1 DNA relaxation assay
Assay type: biochemical
Conditions: 20 μM
Procedure: The ability to relax DNA conformations is a central function of topoisomerase enzymes. Several studies have associated some proapoptotic compounds with the ability to inhibit topoisomerase enzymes. The ability of the selected compounds to inhibit TOP1 or TOP2 activity was determined. In this experiment, daunorubicin was used as a positive control for TOP1/2 inhibition, as previously reported. […] It is important to note the potential for cardiotoxicity associated with some TOP2 inhibitors, which highlights the relevance of assessing compound 14c’s interaction with TOP2B. […] Future studies should include assays to evaluate the specific activity of 14c against both TOP2A and TOP2B to provide a more comprehensive safety profile, as isoform-selective TOP2 inhibitors may offer a therapeutic advantage by reducing adverse effects.
TOP1 activity was assayed by the relaxation of supercoiled DNA (pEGFP-N1) as the manufacturer’s instructions indicated. Briefly, human recombinant TOP1 and buffer assay were obtained from Sigma-Aldrich (St. Louis, MO, USA). […]
Figure 7 The effect of sesquiterpene aryl esters on TOP1- and TOP2-induced DNA relaxation was assessed. (A) The TOP1 inhibition assay evaluated the compounds (10c, 11c, 12c, 13c, and 14c) at a concentration of 20 μM in a DNA relaxation assay. […]

Structure (SMILES): COc1cc2c(cc1OC)[C@]1(C)CCC3C(C)(C)CCC[C@]3(C)C1=C2 (stereo partly drawn) [Compound 14c, (6aR,11bS)-8,9-Dimethoxy-4,4,6a,11b-tetramethyl-2,3,4,4a,5,6,6a,11b-octahydro-1H-benzo[a]fluorene]
- inhibition of TOP1-induced DNA relaxation: did not show significant inhibition
